The values that follow are results of earlier work, collected in patent publication US20070219192A1, “Certain chemical entities, compositions, and methods” (priority 2005, published 2007).

In this series the test system is A549 cells. To be noted: data provided by National Cancer Institute, Developmental Therapeutic Program.

For orientation: GI50 means the concentration that inhibits growth by half. On to `NC(=O)NO` [hydroxyurea], for which the GI50 is 500000 nM.

On to `COc1cccc2c1C(=O)c1c(O)c3c(c(O)c1C2=O)C[C@@](O)(C(=O)CO)C[C@@H]3O[C@H]1C[C@H](N)[C@H](O)[C@H](C)O1` [doxorubicin], for which the concentration for 50% growth inhibition (GI50) is 63 nM.

`CC(=O)O[C@H]1C(=O)[C@@]2(C)[C@H]([C@H](OC(=O)c3ccccc3)[C@]3(O)C[C@H](OC(=O)[C@H](O)[C@@H](NC(=O)c4ccccc4)c4ccccc4)C(C)=C1C3(C)C)[C@]1(OC(C)=O)CO[C@@H]1C[C@@H]2O` [paclitaxel]: the GI50 is 4 nM.

With `O=c1[nH]cc(F)c(=O)[nH]1` [5-fluorouracil], the GI50 is 1000 nM.
